Experimental data from the supplement of paper PMC10307832.

Assays:
Assay in all cases: relative viability (nuclei count vs DMSO), 5 days (fraction); higher = more cells survive
Tipifarnib = compound: Cn1cncc1[C@@](N)(c1ccc(Cl)cc1)c1ccc2c(c1)c(-c1cccc(Cl)c1)cc(=O)n2C [Tipifarnib]
In short: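 For viability, nuclei in each treated well were divided by nuclei in vehicle wells and the median across plates was taken. Lung cancer cell lines in 1536-well plates were pinned with five library-drug doses (not always all listed) spaced by √10, cultured 5 days without medium change, and imaged at 4× after Hoechst staining, with plates passing only at control CV below 25% and at least one doubling.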

Tipifarnib + Palbociclib = compound: Cn1cncc1[C@@](N)(c1ccc(Cl)cc1)c1ccc2c(c1)c(-c1cccc(Cl)c1)cc(=O)n2C [Tipifarnib] + CC(=O)c1c(C)c2cnc(Nc3ccc(N4CCNCC4)cn3)nc2n(C2CCCC2)c1=O [Palbociclib] (partner 0.5 µM)
In short: (§1)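 Relative viability equals treated-well nuclei counts divided by vehicle-well nuclei counts. Counts came from 4× images of lung cancer cell lines grown in 1536-well plates for 5 days after pin-tool dosing on the day after seeding. Dosing used one drug alone or a fixed anchor-drug dose plus five library-drug doses (not always all listed) in √10 steps, and values are medians of duplicate plates.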

Tipifarnib + Foretinib = compound: Cn1cncc1[C@@](N)(c1ccc(Cl)cc1)c1ccc2c(c1)c(-c1cccc(Cl)c1)cc(=O)n2C [Tipifarnib] + COc1cc2c(Oc3ccc(NC(=O)C4(C(=O)Nc5ccc(F)cc5)CC4)cc3F)ccnc2cc1OCCCN1CCOCC1 [Foretinib] (partner 0.25 µM)
In short: as §1

Tipifarnib + OSI-027 = compound: Cn1cncc1[C@@](N)(c1ccc(Cl)cc1)c1ccc2c(c1)c(-c1cccc(Cl)c1)cc(=O)n2C [Tipifarnib] + COc1cccc2cc(-c3nc([C@H]4CC[C@H](C(=O)O)CC4)n4ncnc(N)c34)[nH]c12 [OSI-027] (partner 0.5 µM)
In short: as §1

Cell Line | relative viability (Tipifarnib; 0.01 µM) | relative viability (Tipifarnib; 0.03162 µM) | relative viability (Tipifarnib; 0.1 µM) | relative viability (Tipifarnib; 0.3162 µM) | relative viability (Tipifarnib; 1 µM) | relative viability (Tipifarnib + Palbociclib; first compound 0.01 µM) | relative viability (Tipifarnib + Palbociclib; first compound 0.03162 µM) | relative viability (Tipifarnib + Palbociclib; first compound 0.1 µM) | relative viability (Tipifarnib + Palbociclib; first compound 0.3162 µM) | relative viability (Tipifarnib + Palbociclib; first compound 1 µM) | relative viability (Tipifarnib + Foretinib; first compound 0.01 µM) | relative viability (Tipifarnib + Foretinib; first compound 0.03162 µM) | relative viability (Tipifarnib + Foretinib; first compound 0.1 µM) | relative viability (Tipifarnib + Foretinib; first compound 0.3162 µM) | relative viability (Tipifarnib + Foretinib; first compound 1 µM) | relative viability (Tipifarnib + OSI-027; first compound 0.01 µM) | relative viability (Tipifarnib + OSI-027; first compound 0.03162 µM) | relative viability (Tipifarnib + OSI-027; first compound 0.1 µM) | relative viability (Tipifarnib + OSI-027; first compound 0.3162 µM) | relative viability (Tipifarnib + OSI-027; first compound 1 µM)
NCI-H23 | 1.09 | 0.767 | 0.765 | 0.539 | 0.337 | 0.577 | 0.397 | 0.405 | 0.35 | 0.341 | 1.04 | 0.873 | 0.759 | 0.688 | 0.511 | 0.583 | 0.384 | 0.342 | 0.29 | 0.26
NCI-H322M | 0.965 | 1.06 | 0.977 | 0.805 | 0.786 | 0.521 | 0.548 | 0.515 | 0.459 | 0.508 | 0.964 | 1.15 | 0.849 | 0.876 | 0.783 | 0.5 | 0.492 | 0.513 | 0.415 | 0.445
NCI-H358 | 1.04 | 0.918 | 0.834 | 0.729 | 0.416 | 0.152 | 0.127 | 0.118 | 0.129 | 0.144 | 0.884 | 0.761 | 0.563 | 0.433 | 0.296 | 0.803 | 0.788 | 0.429 | 0.385 | 0.178
NCI-H441 | 1.33 | 0.751 | 0.718 | 0.568 | 0.393 | 0.197 | 0.161 | 0.188 | 0.144 | 0.164 | 0.955 | 0.699 | 0.73 | 0.72 | 0.594 | 0.791 | 0.255 | 0.393 | 0.326 | 0.272
NCI-H460 | 0.989 | 0.963 | 0.727 | 0.538 | 0.149 | 0.178 | 0.187 | 0.096 | 0.0611 | 0.0359 | 1 | 0.872 | 0.624 | 0.581 | 0.207 | 0.669 | 0.626 | 0.257 | 0.209 | 0.0157
NCI-H520 | 1.02 | 0.9 | 0.947 | 0.658 | 0.504 | 0.181 | 0.238 | 0.254 | 0.162 | 0.2 | 0.978 | 0.614 | 0.681 | 0.506 | 0.351 | 0.214 | 0.262 | 0.187 | 0.19 | 0.199
NCI-H647 | 0.883 | 0.807 | 0.727 | 0.404 | 0.196 | 0.406 | 0.288 | 0.297 | 0.159 | 0.138 | 1.44 | 0.78 | 0.95 | 0.379 | 0.534 | 0.409 | 0.585 | 0.438 | 0.299 | 0.101
NCI-H650 | 0.855 | 0.922 | 0.733 | 0.695 | 0.368 | 0.368 | 0.321 | 0.379 | 0.269 | 0.233 | 1.21 | 0.999 | 0.934 | 0.749 | 0.704 | 0.486 | 0.375 | 0.297 | 0.305 | 0.266
NCI-H661 | 1.03 | 1.02 | 0.934 | 0.905 | 0.849 | 0.435 | 0.349 | 0.36 | 0.315 | 0.35 | 1.03 | 1.03 | 0.936 | 0.793 | 0.83 | 0.696 | 0.601 | 0.439 | 0.33 | 0.339
NCI-H727 | 1.16 | 1.11 | 0.876 | 0.685 | 0.645 | 0.693 | 0.596 | 0.599 | 0.652 | 0.615 | 1.04 | 0.875 | 0.795 | 0.976 | 0.944 | 0.599 | 0.535 | 0.459 | 0.477 | 0.427
NCI-H838 | 0.9 | 0.892 | 0.741 | 0.722 | 0.621 | 0.223 | 0.206 | 0.214 | 0.187 | 0.195 | 1.01 | 0.805 | 0.848 | 0.695 | 0.75 | 0.357 | 0.339 | 0.23 | 0.231 | 0.184
NCI-H1355 | 1.04 | 0.852 | 0.68 | 0.675 | 0.607 | 0.399 | 0.398 | 0.351 | 0.325 | 0.322 | 1.12 | 0.94 | 0.855 | 0.694 | 0.734 | 0.37 | 0.344 | 0.295 | 0.262 | 0.26
NCI-H1395 | 0.808 | 0.823 | 0.659 | 0.606 | 0.492 | 0.646 | 0.617 | 0.591 | 0.503 | 0.5 | 0.986 | 0.956 | 0.814 | 0.705 | 0.77 | 0.622 | 0.545 | 0.494 | 0.517 | 0.413
NCI-H1437 | 1.01 | 1.01 | 1.02 | 0.917 | 0.634 | 0.327 | 0.357 | 0.336 | 0.288 | 0.303 | 1.32 | 1.29 | 1.38 | 0.955 | 1.29 | 0.823 | 0.728 | 0.488 | 0.446 | 0.33
NCI-H1650 | 0.68 | 0.486 | 0.553 | 0.453 | 0.374 | 0.295 | 0.211 | 0.243 | 0.205 | 0.183 | 0.766 | 0.633 | 0.668 | 0.424 | 0.554 | 0.407 | 0.17 | 0.305 | 0.26 | 0.196
